Data as given in patent publication US20040204499A1, “Preparation for breast duct fluid collection” (priority 2000, published 2004).

Assay: Clinical trial of breast ductal lavage with topical, subcutaneous and/or intraductal anesthesia; patient-recorded pain and post-procedure notes
Type: in vivo, human
Protocol: A clinical trial was conducted at several different clinical sites by several different physician practitioners. Sometimes the procedures were conducted by practitioners using topical application of anesthetic, subcutaneous anesthesia injection, sometimes using intraductal anesthesia infusion and sometimes all three. […] Apply EMLATM cream (topical anesthetic cream) to the nipple and areola as described in the package insert. […] Dekeratinize the nipple using gauze and a small amount of Omniprep® paste (dekeratinizing agent) or […] gel. Clean the nipple and areola with alcohol and gauze. […] Before attempting ductal catheterization, identify the ductal orifice under magnification, by using the breast aspirator and/or by gently squeezing on the nipple to yield discharge. Use of an incandescent lamp to warm the nipple may help relax the sphincter, thus making cannulation of the duct easier. […] Prepare the nipple and areola with a suitable disinfectant and perform nipple field block as needed. […] Open the catheter package. For intraductal administration of anesthetic, attach anesthetic syringe to inflow (i.e., lower) port and prime the tubing until fluid is expressed through the catheter body and outflow port; leave the syringe attached. […] Ensure that approximately 1 cm of the guidewire protrudes from the catheter tip. Under magnification assistance, if necessary, introduce the pre-seated guidewire/catheter unit into the desired ductal orifice to confirm the location and orientation of the duct. Advance the catheter gradually until the catheter is seated; remove the wire completely. […] Crimp the outflow tubing to prevent return of the anesthetic into the inflow tube. Administer approximately 1 cc of anesthetic through the inflow port (i.e., lower port). Administer more anesthetic as indicated. Disconnect the syringe and set aside for later use. Twist the plunger of a sterile 10 cc syringe to free the seal and attach the syringe to the outflow port. […] Connect saline filled syringe to the inflow (i.e., lower) port. The catheter is now ready for use. […] When Performing saline ductal lavage (i.e. fluid infusion and return): Crimp the outflow tubing to prevent early return into the outflow syringe. Using a 10 cc syringe filled with saline, gradually infuse saline in 0.5 cc increments, or until there is slight resistance or some discomfort (typically 2-3 mLs). Release the crimp on the outflow tubing. Massage the breast towards the nipple with both hands for 30 seconds, especially over the infused duct, taking care not to dislodge the catheter. Cloudy fluid and/or small air bubbles may collect in the catheter body, indicating fluid flow. Crimp the inflow tubing and apply suction to the outflow tubing. […]

CCN(CC)CC(=O)Nc1c(C)cccc1C [lidocaine]
lavage pain, intraductal administration compared to subcutaneous injection of anesthetic (conclusion drawn from Table I): no greater
pain upon intraductal administration of anesthetic (in some cases, particularly practitioner RP): very low
post procedure notes (patient feedback a day to two weeks after procedure, intraductal lidocaine only): pain
bruising (practitioner PS, routine subcutaneous administration in a field block): highest amount of bruising
